Experimental data taken from ChEMBL document CHEMBL1201862, “PubChem BioAssay data set” (2004).
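Step 1: Grow cells in 96-well plates. Step 2: Expose to compound for 48 hours at 5 concentrations. Step 3: Interpolate endpoints linearly; if unreached, use highest concentration. GI50 is the concentration that inhibits growth by half.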 Calls of active or inactive are those of the source. No stated cut-off is given here; in the data, active = GI50 up to about 1.1 µM and inactive = higher.

What was measured:
Experiment in all cases: NCI anticancer screen, dose series, 48 h
786-0 = test system: 786-0
A498 = test system: A498
A549 = test system: A549
ACHN = test system: ACHN
BT-549 = test system: BT-549
CAKI-1 = test system: CAKI-1
CCRF-CEM = test system: CCRF-CEM
COLO 205 = test system: COLO 205
DU-145 = test system: DU-145
EKVX = test system: EKVX
HCC 2998 = test system: HCC 2998
HCT-116 = test system: HCT-116
HCT-15 = test system: HCT-15
HL-60 = test system: HL-60
HOP-62 = test system: HOP-62
HOP-92 = test system: HOP-92
HT-29 = test system: HT-29
Hs-578T = test system: Hs-578T
IGROV-1 = test system: IGROV-1
K562 = test system: K562
KM12 = test system: KM12
LOX IMVI = test system: LOX IMVI
M14 = test system: M14
MCF7 = test system: MCF7
MDA-MB-231 = test system: MDA-MB-231
MDA-MB-435 = test system: MDA-MB-435
MDA-N = test system: MDA-N
MOLT-4 = test system: MOLT-4
Malme-3M = test system: Malme-3M
NCI-H226 = test system: NCI-H226
NCI-H23 = test system: NCI-H23
NCI-H460 = test system: NCI-H460
NCI-H522 = test system: NCI-H522
NCI/ADR-RES = test system: NCI/ADR-RES
OVCAR-3 = test system: OVCAR-3
OVCAR-4 = test system: OVCAR-4
OVCAR-5 = test system: OVCAR-5
OVCAR-8 = test system: OVCAR-8
PC-3 = test system: PC-3
RPMI-8226 = test system: RPMI-8226
RXF 393 = test system: RXF 393
SF-268 = test system: SF-268
SF-295 = test system: SF-295
SF-539 = test system: SF-539
SK-MEL-28 = test system: SK-MEL-28
SK-MEL-2 = test system: SK-MEL-2
SK-MEL-5 = test system: SK-MEL-5
SK-OV-3 = test system: SK-OV-3
SN12C = test system: SN12C
SNB-19 = test system: SNB-19
SNB-75 = test system: SNB-75
SR = test system: SR
SW-620 = test system: SW-620
T47D = test system: T47D
TK-10 = test system: TK-10
U-251 = test system: U-251
UACC-257 = test system: UACC-257
UACC-62 = test system: UACC-62
UO-31 = test system: UO-31

In the case of CCCC(=O)Nc1cc(/C=C/C(=O)N2C[C@@H]3C[C@]34C2=CC(=O)c2[nH]cc(C)c24)n(C)c1, the GI50 (786-0) is reported as 75.7 nM (active), the GI50 (A498) is reported as 236 nM (active) and the GI50 (A549) is reported as 318 nM (active). For the same compound, the GI50 (ACHN) was 68.9 nM (active), the GI50 (BT-549) was 290 nM (active) and the GI50 (CAKI-1) was 100 nM (active). For the same compound, the GI50 (CCRF-CEM) was 32.1 nM (active), the GI50 (COLO 205) was 293 nM (active) and the GI50 (DU-145) was 67.3 nM (active). For the same compound, the GI50 (EKVX) was 644 nM (active), the GI50 (HCC 2998) was 93.1 nM (active) and the GI50 (HCT-116) was 84.1 nM (active). The GI50 (HCT-15) was 723 nM, the GI50 (HL-60) was 47.1 nM (active) and the GI50 (HOP-62) was 769 nM (active). For the same compound, the GI50 (HOP-92) was 372 nM (active), the GI50 (HT-29) was 208 nM (active) and the GI50 (Hs-578T) was 668 nM (active). The GI50 (IGROV-1) was 329 nM (active), the GI50 (K562) was 66.1 nM (active) and the GI50 (KM12) was 653 nM (active). The GI50 (LOX IMVI) was 73.3 nM (active), the GI50 (M14) was 297 nM (active) and the GI50 (MCF7) was 59.6 nM (active). For the same compound, the GI50 (MDA-MB-231) was 380 nM (active), the GI50 (MDA-MB-435) was 285 nM (active) and the GI50 (MDA-N) was 361 nM (active). For the same compound, the GI50 (MOLT-4) was 25.7 nM (active), the GI50 (Malme-3M) was 74.6 nM (active) and the GI50 (NCI-H226) was 313 nM (active). For the same compound, the GI50 (NCI-H23) was 92.7 nM (active), the GI50 (NCI-H460) was 221 nM (active) and the GI50 (NCI-H522) was 43.2 nM (active). The GI50 (NCI/ADR-RES) was 778 nM (active), the GI50 (OVCAR-3) was 429 nM (active) and the GI50 (OVCAR-4) was 256 nM (active). For the same compound, the GI50 (OVCAR-5) was 1050 nM (active), the GI50 (OVCAR-8) was 53.3 nM (active) and the GI50 (PC-3) was 259 nM (active). The GI50 (RPMI-8226) was 675 nM (active), the GI50 (RXF 393) was 71.1 nM (active) and the GI50 (SF-268) was 83 nM (active). The GI50 (SF-295) was 453 nM (active), the GI50 (SF-539) was 166 nM (active) and the GI50 (SK-MEL-28) was 408 nM (active). The GI50 (SK-MEL-2) was 261 nM (active), the GI50 (SK-MEL-5) was 74.8 nM (active) and the GI50 (SK-OV-3) was 975 nM (active). The GI50 (SN12C) was 470 nM (active), the GI50 (SNB-19) was 745 nM (active) and the GI50 (SNB-75) was 345 nM (active). For the same compound, the GI50 (SR) was 14.9 nM (active), the GI50 (SW-620) was 70.6 nM (active) and the GI50 (T47D) was 86.7 nM (active). The GI50 (TK-10) was 495 nM (active), the GI50 (U-251) was 70.2 nM (active) and the GI50 (UACC-257) was 98 nM (active). The GI50 (UACC-62) was 68.2 nM (active) and the GI50 (UO-31) was 473 nM (active).
